pIC50: −log10 of the molar value. Read-outs that look alike come from different tables or passages of the source.
Key:
[1] = system: primary human hepatocytes (PH, PHHs); assay: Cell viability assay (MTT) of primary human hepatocytes after 24 hours drug treatment; type: cell-based; settings: Hepatocyte, read-out: IC50 PH
Procedure: Cryopreserved PHHs were obtained from Life Technologies (Carlsbad, Calif., USA) and BD Biosciences (Franklin Lakes, N.J., USA). The cells were thawed in a 37° C. water bath and resuspended in pre-warmed InVitroGRO HT Thawing Medium (Celsis, In Vitro Technologies, Baltimore, Md., USA). The cells were centrifuged at 800 rpm at 4° C. and the cell pellet was resuspended in InVitroGRO CP Plating Medium (containing 0.02% Torpedo Antibiotic Mix). Cells were counted and 50,000 cells were plated into each well of 96-well plates (Nunc, Naperville, Ill., USA) pre-coated with neutralized 1.5 mg/ml PureCol® Bovine Collagen solution, Type 1 (Advanced Biomatrix, San Diego, Calif., USA). After allowing for cell attachment for 4 hours, the media was changed to William's media E (Sigma-Aldrich, Singapore), supplemented with 1 mg/ml bovine serum albumin (Sigma), 1× insulin-transferrin-selenium and 1×MEM non-essential amino acids (Gibco, Carlsbad, Calif., USA), 100 nM dexamethasone (Sigma), 0.3 mg/ml L-glutamine (Lonza, Basel, Switzerland), 100 U/ml penicillin and 100 μg/ml streptomycin (Cellgro, Manassas, Va.). Culture medium was changed daily. Three different lots of hepatocytes were used for the experiments. All assays were performed after 2 days of culture.
(§1) Cell viability of differentiated hepatocytes was measured 24 hours after treatment with drugs using CellTiter 96® Non-Radioactive Cell Proliferation Assay (MTT) (Promega, Madison, Wis., USA) according to manufacturer's instructions. The following drugs were used for the cell viability assays: Acetaminophen, Diclofenac, Digoxin, Chlorpromazine, Troglitazone and Quinidine (all drugs from Sigma). Stock solutions of drugs were prepared in DMSO and then diluted in media to obtain desired working concentrations. Controls were treated with DMSO alone (in absence of test compounds) and considered as 100% viability value.
(§2) One of the major applications of hepatocytes is toxicity screening in order to aid drug development and discovery. Researchers have tried to predict drug-induced cytotoxicity in vitro using HepG2, HepaRG primary human hepatocyte (PH) as well as hESC/hiPSC-derived hepatocyte like cells. Although primary human hepatocyte (PH) are considered the gold standard for drug metabolism and toxicity in vitro, cells lines such as HepG2 and HepaRG are less expensive than primary human hepatocyte (PH) and reproducible experiments are easier to perform than they are with primary human hepatocyte (PHs). However, 30% of the compounds were incorrectly classified as nontoxic. To overcome these problems, it would be highly advantageous if hESC/hiPSC derived hepatocytes could be used to predict drug-induced toxicity. To examine its applicability to drug screening, small molecule-derived hepatocytes (SM-Hep) were treated with various drugs that cause hepatotoxicity. Cell viability, assessed using MTT assay, was compared to growth factor-derived hepatoctyes (GF-Hep) as well as primary human hepatocyte (PH). The susceptibility of small molecule-derived hepatocytes (SM-Hep) to all the drugs tested was similar to that of the growth factor-derived hepatoctyes (GF-Hep) (FIG. 6).

[2] = system: SM-Hep (hepatocytes derived from hESCs using small molecules); assay: Cell viability assay (MTT) of small molecule-derived hepatocytes after 24 hours drug treatment; type: cell-based; settings: Homo sapiens, Hepatocyte, read-out: IC50 SM-Hep
Procedure: (§3) The differentiation was initiated when hESCs reached a confluence level of approximately 80%. […] Briefly, basal differentiation medium was composed of 60% DMEM-low glucose (Gibco, Carlsbad, Calif., USA), 40% MCDB-201-water (Sigma), 0.25× Linoleic acid—Bovine serum albumin (LA-BSA) (Sigma), 0.25× Insulin-transferrin-selenium (ITS) (Sigma), 100 U/mL Penicillin and 100 μg/mL Streptomycin (Cellgro), 0.1 mM L-Ascorbic Acid (Sigma), 1 μM Dexamethasone (Sigma) and 110 μM 2-mercaptoethanol (Gibco).
as §1, §2

[3] = system: GF-Hep (hepatocytes derived from hESCs using growth factors); assay: Cell viability assay (MTT) of growth factor-derived hepatocytes after 24 hours drug treatment; type: cell-based; settings: Homo sapiens, Hepatocyte, read-out: IC50 GF-Hep
Procedure: as §3, §1, §2

hESCs (H9) = assay: qPCR of pluripotency and definitive endoderm markers in hESCs treated for 6 days; type: cell-based, human; settings: among small molecule combinations
Procedure: hESC cell line, H9 (WiCell Research Institute, Madison, Wis.) was cultured and propagated on tissue culture plates coated with matrigel (BD Biosciences, San Jose, Calif., USA) in mTeSRTM 1 media (Stem Cell Technologies, Vancouver, BC, Canada). Cultures were passaged at intervals of 5-7 days by incubation with 1 mg/ml dispase (Stem Cell Technologies) for 5 minutes at 37° C. Colonies were picked under microscopic guidance and replated at 1:3 to 1:6 split ratios. […] (20 ng/ml). […] In human embryonic stem cells (hESCs), manipulations of Nodal and Wnt signaling have been exploited to direct differentiation towards definitive endoderm (DE). […] Therefore, to induce differentiation of HESCs into definitive endoderm using small molecules, the present study analyzed effects of compounds which could substitute for Activin A or/and Wnt signaling. […] Cells were cultured in the presence of diverse combinations of these three compounds for 6 days, and expression of pluripotency marker (OCT4) and definitive endoderm markers (SOX17 and FoxA2) were analyzed using qPCR. […] The expression of pluripotency markers (OCT4, Nanog and SOX2) and definitive endoderm (DE) markers (SOX17 and FOXA2) were analyzed using qPCR. […]

[4] = Table 1 (initial results), cell viability, 24 hours treatment
[5] = Table 2 (updated results), cell viability, 24 hours treatment, PHHs

Row | Structure (SMILES) | pIC50 [1, 4] | pIC50 [1, 5] | pIC50 [2, 4] | pIC50 [3, 4] | pIC50 [1] | pIC50 ([2]; 24 h) | pIC50 ([3]; 24 h) | FOXA2 expression (hESCs (H9)) | SOX17 expression (hESCs (H9))
1 | CC(=O)Nc1ccc(O)cc1 [Acetaminophen] | 1.34 | 1.34 | 1.42 | 1.34 | – | – | – | – | –
2 | CN(C)CCCN1c2ccccc2Sc2ccc(Cl)cc21 [Chlorpromazine] | 4.14 | 4.14 | 4.17 | 4.21 | – | – | – | – | –
3 | O=C(O)Cc1ccccc1Nc1c(Cl)cccc1Cl [Diclofenac] | 2.45 | 2.45 | 2.71 | 2.73 | – | – | – | – | –
4 | C[C@H]1O[C@@H](O[C@H]2[C@@H](O)C[C@H](O[C@H]3[C@@H](O)C[C@H](O[C@H]4CC[C@@]5(C)[C@H](CC[C@@H]6[C@@H]5C[C@@H](O)[C@]5(C)[C@@H](C7=CC(=O)OC7)CC[C@]65O)C4)O[C@@H]3C)O[C@@H]2C)C[C@H](O)[C@@H]1O [Digoxin] | – | – | – | – | 6.47 | 6.44 | 6.60 | – | –
5 | O=C(O)CCCCCC(=O)NN=C1CCCC1 [IDE-2] | – | – | – | – | – | – | – | highest FOXA2 expression | no SOX17 expression was detected
6 | C=C[C@H]1C[N@@]2CC[C@H]1C[C@@H]2[C@@H](O)c1ccnc2ccc(OC)cc12 [Quinidine] | 3.70 | 3.25 | 3.14 | 3.27 | – | – | – | – | –
7 | Cc1c(C)c2c(c(C)c1O)CCC(C)(COc1ccc(CC3SC(=O)NC3=O)cc1)O2 (stereo not shown) [Troglitazone] | 4.07 | 4.53 | 4.50 | 4.47 | – | – | – | – | –

From patent US10323228B2, “Differentiation of hepatocyte-like cells from stem cells” (Agency for Science, Technology and Research, priority 2014, dated 2019)
